Data published in US7482008B1, “Human T cell reactive feline protein (TRFP) isolated from house dust and uses therefor” (Merck Patent GmbH, priority 1989, dated 2009).

Assays:
[1] = tested on: PBMC from cat-allergic patients; test: IL-2, IFN-gamma and IL-4 measurements by PCR in primary 36 hour PBMC culture; type: cell-based, human; settings: Patient 409 primary 36 hour culture; for STIMULATION INDEX IFN-γ / STIMULATION INDEX IL-4: PCR, vs medium control
Protocol: Peripheral blood mononuclear cells (PBMC) were purified from cat-allergic patients as described in Example 5. Five×10^6 PBMC were cultured at 2×10^6/ml for 36 hours in the presence of medium only, 20 μg purified TRFP/ml or 50 μg peptide/ml. The cells were then washed two times with phosphate buffered saline (PBS, pH 7.2) and lysed with 2 ml […] guanidinium isothiocyanate, 0.5% Sarkosyl, 5 mM sodium citrate, 0.1 M 2-mercaptoethanol, pH 7.0. The lysate was then forced through a 26 gauge needle to shear genomic DNA, and was layered onto a 2 ml cushion of 5.7 M CsCl, 0.01 M EDTA, pH 7.5 in diethylpyrocarbonate (DEPC)-treated water. The lysate was centrifuged at 35,000 RPM in a Beckman SW41 rotor for 18 hours at 20° C. The RNA pellet was resuspended in 0.4 ml TE (10 mM Tris, 1 mM EDTA), pH 7.5, 0.1% SDS, and then extracted three times with 0.5 ml phenol/0.2 ml chloroform. The RNA was then precipitated on dry ice with 2.5 volumes ice-cold ethanol, 1/10 volume 3 M sodium acetate, pH 5.2 in DEPC-treated water, rinsed once with 70% ethanol in DEPC-treated water, and dried. The RNA pellet was resuspended in 2 μl TE., pH 7.5 in DEPC-treated water.
Total cellular RNA was converted to cDNA using the Superscript kit (BRL, Bethesda, Md.). Two μl of RNA were added to one μl oligo (dT)12-18 (500 μg/ml) and 9 μl water. The sample was heated to 70° C. for 10 minutes and ice quenched. Four μl 5× buffer were added to the sample along with 2 μl 0.1 M DTT and 1 μl dNTP mix (10 mM each, dATP, dCTP, dGTP, dTTP). One μl reverse transcriptase (200U) was added and the reaction was carried out for one hour at 42° C. The reaction was terminated by incubation of the sample at 90° C. for five minutes and stored at −80° C.
Ten-fold serial dilutions of T cell cDNA in 10 mM TRIS, pH 7.5 were amplified using the standard kit and protocol recommended by Perkin Elmer-Cetus (Redwood City, Calif.). Each sample received 26.65 μl water, 5 μl ×PCR buffer, 8 μl of dNTP mix (1.25 mM each of dATP, dCTP, dGTP and dTTP), 0.1 μl alpha 32P-dCTP (3000 Ci/mmol), 0.25 μl AmpliTaq, 5 μl cDNA and 5 μl cytokine-specific 5′ and 3′ primers (20 micromolar). The primers used for most cytokines and the beta-actin control were purchased from Clontech (Redwood City, Calif.). The human IL-4 primers were purchased from Research Genetics (Huntsville, Ala.) and had the following sequences: 5′ hIL-4 primer (SEQ. ID. NO: 58):
The PCR products were extracted once with 25 μl chloroform and 25 μl of each sample were then electrophoresed on an 8% polyacrylamide gel at 250 V. The gel was dried and exposed to pre-flashed x-ray film. Several exposures of each gel were then scanned using a Shimadzu flying spot laser densitometer. Values on the linear portion of the titrations were then compared to the medium control values to obtain a stimulation index for each sample. Primers for beta-actin were included as a control for general cDNA levels in each sample. Where the medium control values are not detectable, the lowest measurable response was set at 1.00. In other experiments, levels of cytokine cDNA can be compared directly with previously amplified cytokine specific cDNAs as standards. Thus, absolute levels of particular cytokine cDNAs can be compared from one sample to another and from one experiment to another. In this experiment, IL-2, IL-4 and IFN-gamma levels were measured. As shown, in this particular cat-allergic patient, peptides such as Fel 18 generate more IL-4 than certain other TRFP-derived peptides (Fel 14 and Fel 17). This analysis will be expanded to studies of other cytokines involved in the generation of allergic responses, such as IL-5, IL-8, IL-9, TGF-beta. Samples of cDNA from each treatment can also be saved for later analysis once additional cytokines are identified and sequenced. Peptides generating a spectrum of cytokines favorable for the generation of allergic responses can be avoided for therapeutic use in the treatment of cat allergy. […]

human IgE = test: SDS/PAGE Western immunoblot of human IgE binding, plasma from patient #417; settings: patient #417 plasma
Protocol: Western immunoblot analysis of the peptides produced in above was performed. The concentration of all protein samples (e.g., TRFP, recombinant chain 1 of TRFP, recombinant chain 2 of TRFP, peptide XYZ, peptide XZY, peptide YXZ, peptide YZX, peptide ZXY and peptide ZYX) for gel electrophoresis was determined by the BCA method (Pierce Co.). All protein samples were loaded on the gel at 5 μg/lane except TRFP at 10 μg/lane. Protein separation was carried out on a 15% acrylamide gel, and transfer was performed by electroblotting at 1.5 Amps for 1.5 hours onto nitrocellulose paper (Schleicher and Schuell, 0.1 microns) in a Hoeffer apparatus according to the protocol of Towbin, H., T. Stachlin, and J. Gordon, PNAS 76:4350 (1979). Proteins were rinsed in blot solution (25 mM Tris-HCl 7.5, 0.171 M NaCl and 0.5 ml/liter Tween 20). The blot was then blocked for one hour in blocking solution (1% milk in blot solution). Plasma from patient #417, used as a primary antibody source, was diluted in blocking solution to 10% and preabsorbed for 1.5 hours with unused nitrocellulose (2 cm×15 cm). The prepared human plasma was then incubated overnight on an orbital shaker with the protein blot section of interest. Following the first antibody incubation the blot section was washed three times, each wash involved a fifteen minute incubation in blot solution. The second antibody, specific for human IgE (biotinylated goat anti-human IgE, KPL Inc.), was diluted 1:2500 in blot solution and the incubation proceeded for two hours. Excess second antibody was subsequently removed by three 15 minute incubations with blot solution. ^125I Iodinated streptavidin (Amersham) was diluted 1:2500 in blot solution and incubated with blots for 1 hour, at 2 μCi in a 50 ml incubation volume. Blot sections were then washed with blot solution until the detectable radioactivity in the waste solution decreased to background levels. The blot section was then wrapped in saran wrap and exposed to film overnight with a cronex intensifying screen at −80° C.

mice = test: Biweekly subcutaneous administration, peptide specific antibody in sera; type: in vivo, mouse; settings: for antibodies specific for peptide (IgG or IgE) in sera: 100 μg s.c. in PBS on days 0, 14, 28 and 56, alone or in combination; for IgG antibodies to peptide, sera dilution: animals injected with the peptides in CFA
Protocol: This animal model experiment was designed to simulate a human treatment protocol such as that described in Example 30. Mice were administered subcutaneous injections of 100 μg peptide/100 μl PBS on days 0, 14, 28 and 56. Mice were administered peptide X or peptide Y either alone or in combination. […] There was no specific binding above background levels for IgG or IgE.

Row | Substance | RATIO IFN/IL-4 [1] | STIMULATION INDEX IFN-γ [1] | STIMULATION INDEX IL-4 [1] | IgE binding, Western immunoblot (human IgE) | antibodies specific for peptide (IgG or IgE) in sera (mice) | IgG antibodies to peptide, sera dilution (mice)
1 | TRFP: human T cell reactive feline protein affinity purified from house dust; two covalently linked chains | 0.9 | 2.1 | 3.8 | reactivity |  | 
2 | peptide X: amino acid residues 7-30 from chain 1 of TRFP (SEQ. ID. NO: 17); Table 2 lists Fel 8-3 as 7-33 (KRDVDLFLTGTPDEYVEQVAQYKALPV) |  |  |  |  | no antibodies specific for either peptide | 1/4500
3 | peptide Y: amino acid residues 29-55 from chain 1 of TRFP (SEQ. ID. NO: 18) (KALPVVLENARILKNCVDAKMTEEDKE) |  |  |  |  | no antibodies specific for either peptide | 1/4500
4 | recombinant chain 1: recombinant TRFP chain 1 expressed in E. coli |  |  |  | strong IgE binding |  | 
5 | NARILKNCVDAKMTEEDKE [Fel 4, TRFP chain 1 amino acids 37-55] | 2.6 | 25.8 | 10.0 |  |  | 
